Drawing on PubChem BioAssay (NCI), this text covers TGI and GI50 for 14 molecules.

Some test systems named below: HS 578T breast; M14 melanoma; M19-MEL melanoma; MOLT-4 leukemia; NCI-H226 lung; NCI-H522 lung; PC-3 prostate; SK-MEL-5 melanoma; SNB-75 CNS; DLD-1 colon; DMS 114 small cell lung; DMS 273 small cell lung.
Holding throughout (test): NCI tumour cell line growth inhibition, 48 h

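The compound was tested at five concentrations on cells cultured in 96-well plates, with a 48-hour exposure period. Here, GI50 denotes the concentration required for 50% inhibition of growth. TGI: total growth inhibition.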

Consider `CCO/C(O)=c1/s/c(=C2/SC(=S)N(c3ccc(C)cc3)C2=O)n(-c2ccccc2)c1=N`, for which the TGI was 66.8 µM in the test with HS 578T breast; over 100 µM with M14 melanoma; over 100 µM with M19-MEL melanoma; over 100 µM in the test with MOLT-4 leukemia; over 76.9 µM with NCI-H226 lung; over 100 µM in the test with NCI-H522 lung. Also, the TGI was over 100 µM in the test with PC-3 prostate, over 100 µM with SK-MEL-5 melanoma and 22 µM with SNB-75 CNS.

As to `COc1ccc(/C=C2\C(=O)N(C(=O)c3ccc(NC(C)=O)cc3)N=C2C)cc1OC`, the TGI in the test on DLD-1 colon, with DMS 114 small cell lung, in the test with DMS 273 small cell lung, with M14 melanoma, in the test on M19-MEL melanoma and with MOLT-4 leukemia was over 100 µM in each case. Besides, the TGI in the test with NCI-H226 lung, with NCI-H522 lung, in the test on SK-MEL-5 melanoma and with SNB-75 CNS was over 100 µM throughout.

Consider `CCOc1cc2c(cc1OC)c[n+](C)c1c3cc(OC)c(OC)cc3ccc21`, for which the TGI in the test with DLD-1 colon was over 100 µM; in the test on DMS 114 small cell lung it was 51.3 µM; with DMS 273 small cell lung it was over 100 µM; in the test with M14 melanoma, over 100 µM; with M19-MEL melanoma it was over 100 µM; with MOLT-4 leukemia, over 100 µM. Besides, the TGI with NCI-H226 lung was 99 µM; in the test on NCI-H522 lung, over 100 µM; in the test with SK-MEL-5 melanoma it was over 100 µM.

As for `Cc1c2ccccc2c(=O)n2c(-c3ccccn3)cccc12`, the TGI in the test with DLD-1 colon, in the test on DMS 114 small cell lung, in the test with DMS 273 small cell lung, in the test with M14 melanoma, with M19-MEL melanoma and in the test on MOLT-4 leukemia was over 100 µM throughout. Further, the TGI with NCI-H226 lung, in the test with NCI-H522 lung, in the test with SK-MEL-5 melanoma and in the test with SNB-75 CNS was over 100 µM in each case.

Regarding `CC(C)NC1CCCCC2c3ccccc3C12O` (stereo unspecified), the TGI in the test with DMS 114 small cell lung, with DMS 273 small cell lung, in the test on M14 melanoma, in the test on M19-MEL melanoma, with MOLT-4 leukemia and with NCI-H226 lung was over 100 µM each time. The TGI in the test on NCI-H522 lung, with SK-MEL-5 melanoma and in the test on SNB-75 CNS was over 100 µM each time.

Turning to `CC(C)C(Sc1nc(-c2ccccc2)c(-c2ccccc2)[nH]1)C(=O)N/N=C/c1ccc(Cl)cc1` (stereo unspecified), the TGI with DLD-1 colon is over 100 µM; with DMS 114 small cell lung it was 71.5 µM; in the test with DMS 273 small cell lung, 39.6 µM; in the test on M14 melanoma it was 33.7 µM; in the test on M19-MEL melanoma, 34.6 µM; with NCI-H226 lung it was 41.5 µM. Besides, the TGI in the test on NCI-H522 lung was 41.7 µM; with SK-MEL-5 melanoma, 30.5 µM; in the test with SNB-75 CNS it was 67.6 µM.

`NC(=O)N/N=C(\Cc1cc(=O)oc2cc(O)ccc12)C(=O)Nc1ccccc1C(N)=O`: the TGI with HS 578T breast, with M14 melanoma, with MOLT-4 leukemia, in the test with NCI-H226 lung, with NCI-H522 lung and with PC-3 prostate was over 100 µM in each case. Further, the TGI in the test on SK-MEL-5 melanoma and in the test with SNB-75 CNS was over 100 µM in each case.

On to `CN(C)c1ccc(-c2c(C#N)c(-c3ccccc3)n(NS(=O)(=O)c3ccccc3)c(=O)c2C#N)cc1`, for which the TGI with HS 578T breast was over 100 µM; with M14 melanoma, over 100 µM; in the test with MOLT-4 leukemia, 55.8 µM; in the test with NCI-H226 lung it was over 100 µM; with NCI-H522 lung, over 100 µM; in the test with PC-3 prostate it was over 100 µM. Also, the TGI in the test with SK-MEL-5 melanoma is 46.8 µM; in the test with SNB-75 CNS, over 100 µM.

For the molecule `COC(=O)[C@H](Cc1ccccc1)NC(=O)N(CCN(CCC#N)C(=O)N[C@H](C(=O)OC)C(C)C)c1ccccc1`, the TGI in the test on HS 578T breast, with M14 melanoma, in the test with MOLT-4 leukemia, with NCI-H226 lung, with NCI-H522 lung and in the test with PC-3 prostate was over 100 µM each time. Besides, the TGI with SK-MEL-5 melanoma and in the test with SNB-75 CNS was over 100 µM each time.

As for `CCOP(=O)(OCC)/C(C#N)=C/c1nc[nH]c1C`, the TGI with HS 578T breast, in the test on M14 melanoma, in the test on MOLT-4 leukemia, with NCI-H226 lung, in the test on NCI-H522 lung and in the test on PC-3 prostate was over 100 µM each time. Moreover, the TGI in the test on SK-MEL-5 melanoma and in the test with SNB-75 CNS was over 100 µM each time.

Turning to `Cc1c2ccccc2c(/C=N/NC(=O)CSCC(=O)N/N=C/c2c3ccccc3c(C)c3ccccc23)c2ccccc12`, the TGI is over 100 µM in the test on HS 578T breast; over 100 µM in the test on M14 melanoma; over 87.8 µM in the test with MOLT-4 leukemia; over 61.1 µM in the test with NCI-H226 lung; over 100 µM in the test with NCI-H522 lung; over 67.5 µM with PC-3 prostate. Also, the TGI is over 100 µM in the test with SK-MEL-5 melanoma and over 73.3 µM with SNB-75 CNS. Also, the GI50 in the test with NCI-H522 lung was over 100 µM.

Take `O=C(Nc1ccc(Cl)cc1)c1cc(S(=O)(=O)Nc2nc3ncccc3[nH]2)c(SSc2cc(Cl)c(C(=O)Nc3ccc(Cl)cc3)cc2S(=O)(=O)Nc2nc3ncccc3[nH]2)cc1Cl`: the TGI in the test on HS 578T breast, with M14 melanoma, with MOLT-4 leukemia, with NCI-H226 lung, in the test with NCI-H522 lung and in the test with PC-3 prostate was over 100 µM in each case. The TGI with SK-MEL-5 melanoma and in the test with SNB-75 CNS was over 100 µM throughout.

Regarding `COc1cc(O)c2c(=O)c3cccc(C)c3[nH]c2c1`, the TGI in the test on HS 578T breast, in the test on M14 melanoma, in the test with MOLT-4 leukemia, with NCI-H226 lung, in the test on NCI-H522 lung and in the test on PC-3 prostate was over 10 µM in each case. Moreover, the TGI in the test on SK-MEL-5 melanoma and in the test with SNB-75 CNS was over 10 µM throughout.

On to `Cc1ccc2[nH]c3c(c2c1)C1CCC(C(C)(C)C)CC1C1C(=O)N(c2ccc(Oc4ccccc4)cc2)C(=O)C31` (stereo unspecified), for which the TGI in the test with HS 578T breast was 8.28 µM; with M14 melanoma, over 100 µM; in the test with MOLT-4 leukemia it was 7.92 µM; with NCI-H226 lung, over 86.9 µM; in the test with NCI-H522 lung it was 45 µM; with PC-3 prostate, over 100 µM. The TGI in the test with SK-MEL-5 melanoma is over 100 µM; in the test with SNB-75 CNS, 9.08 µM.
